For one assay, the system named is Klebsiella pneumoniae. In words: antibacterial activity (Minimum Inhibitory Concentration). It counts as cell-based.
Another assay relates to Pseudomonas 1007. In words: paper disk method, inhibitory zone diameter. It counts as cell-based. To be noted: Pseudomonas, 1007; 2000 γ/ml; read-out: inhibitory zone diameter.

Drawing on US4103082A, “Aminocyclitol derivatives and process for producing the same” (priority 1975, dated 1978), this text covers MIC and zone of inhibition for two molecules.

Molecules are shown by their SMILES. In brackets after ≈: the same amount, converted by molar mass. Like-named read-outs stand apart in the source and are kept apart here.

One may read the MIC as the least concentration at which growth counts as inhibited. In the assay on Klebsiella pneumoniae, `NC[C@H]1O[C@H](O[C@H]2C[C@@H](O)[C@H](N)C[C@@H]2N)[C@H](N)[C@@H](O)[C@@H]1O` [5-Deoxyneamine, 5-deoxyneamine] returned an MIC of 6.25 µg/mL (≈ 20.4 µM). Moreover, the zone of inhibition at 2000 µg/mL in the assay on Pseudomonas 1007 is 0 mm.

For the molecule `NC[C@H]1O[C@H](O[C@H]2[C@H](O)C[C@H](N)C[C@@H]2N)[C@H](N)[C@@H](O)[C@@H]1O` [6-Deoxyneamine, 6-deoxyneamine], the MIC with Klebsiella pneumoniae (read-out: MIC) stood at 25 µg/mL (≈ 81.6 µM). Also, the zone of inhibition at 2000 µg/mL with Pseudomonas 1007 stood at 0 mm.
